Values of other authors, collected in patent publication US20070232656A1, “Pharmaceutical Composition And Method For Treating Neurodegenerative Disorders” (Myriad Genetics, Incorporated, priority 2004, published 2007).
Read-outs that look alike come from different tables or passages of the source.

Experiments:
Aβ42 [1] = conditions: transgenic mouse model
Aβ42 [2] = conditions: CHO cells
[3] = 50 mg and 100 mg doses, human subjects
[4] = for efficacy for treating AD: clinical trials in AD patients (rofecoxib at 25 mg daily)
[5] = in vivo Alzheimer's disease excitotoxic model system
[6] = patients having mild cognitive impairment

C[C@@H](C(=O)O)c1ccc(-c2ccccc2)c(F)c1 [(R)-2-(2-fluoro-4-biphenylyl)propionic acid]
inhibition of COX activity (COX): negligibly inhibits COX activity | lowering of Aβ42 (Aβ42 [1]): lower Aβ42 | lowering of Aβ42 (Aβ42 [2]): lower Aβ42 | analgesic effect [3]: produced an analgesic effect

CC12CC3CC(C)(C1)CC(N)(C3)C2 [memantine]
efficacy in treating mild-to-moderate AD ([4]; mild-to-moderate AD): showed efficacy

CS(=O)(=O)c1ccc(C2=C(c3ccccc3)C(=O)OC2)cc1 [rofecoxib]
efficacy for treating AD [4]: failed to show efficacy | neuroprotection [5]: provides neuroprotection | prevention of the development of Alzheimer's disease [6]: failed to prevent the development of Alzheimer's disease | patients who developed AD ([6]; 4.5% for placebo): 6.4%

COc1ccc2cc([C@H](C)C(=O)O)ccc2c1 [Naproxen]
efficacy for treating AD [4]: failed to show efficacy
